Experimental data as given in ChEMBL document CHEMBL1139806, “Synthesis, anticancer, and cytotoxic activities of some mononuclear Ru(II) compounds” (Bioorg Med Chem, 2007).

How the values were obtained:
Assay type in all cases: functional, cell-based
[1] = test system: CCRF-CEM; test: Cytotoxicity against human CEM cells
[2] = test system: L1210; test: Cytotoxicity against mouse L1210 cells
[3] = Cytotoxicity against human Molt 4/C8 cells; settings: Molt4/C8

| SMILES | IC50 [1] | IC50 [2] | IC50 [3] |
| --- | --- | --- | --- |
| NC(=S)N/N=C/c1ccccc1Cl | 98 µM | 84 µM | 200 µM |
| COc1ccc(/C=N/NC(N)=S)cc1 | 158 µM | 232 µM | 196 µM |
| NC(=S)N/N=C/c1ccc(Cl)cc1 | 194 µM | 284 µM | 302 µM |
| NC(=S)/N=N/c1c(O)[nH]c2ccccc12 | 249 µM | 382 µM | 405 µM |
| NC(=S)N/N=C/c1ccccc1F | 166 µM | 242 µM | 140 µM |
| Oc1ccccc1/C=N/c1ccc(F)c(Cl)c1 | 100 µM | 68 µM | 112 µM |
